{"source": "paper PMC5295762", "about": "“Verticillin A Inhibits Leiomyosarcoma and Malignant Peripheral Nerve Sheath Tumor Growth via Induction of Apoptosis” (Clinical & experimental pharmacology, 2016)", "key": {"[1]": {"test_system": "SW620 colon cancer cells", "design": "method as in PMID 21911457", "conditions": "cited from earlier work"}, "[2]": {"test_system": "SKLMS1 cells", "experiment": "Annexin V/PI FACS analysis, SKLMS1", "assay_type": "cell-based", "conditions": "SKLMS1, 24 h treatment, concentration not given", "procedure": "(§1) Apoptosis was measured by quantifying cleaved-caspase 3 and cleaved-caspase 7 activity using Cell Event Caspase 3/7 Green Detection Reagent (Life Technologies, Carlsbad, CA, USA) in the Incucyte Zoom system (Essen BioScience, Ann Arbor, MI, USA). Cells were plated at a density of 4,200 cells per well and allowed to adhere. The cells were then treated with DMSO or 10, 50, or 100 nM verticillin A for 24 h, and caspase activity was monitored using fluorescent Cell Event Caspase 3/7 Reagent (5 µM final concentration). Endpoint analysis was performed in each well using a final concentration of 10 µM Vybrant DyeCycle Green Stain (Life Technologies, Carlsbad, CA, USA) in complete DMEM. Apoptosis was confirmed using the Apoptosis Detection Kit (BD Pharmagen, San Diego, CA, USA) in complete DMEM. Per supplier instructions, 1 × 10^6 cells/mL were stained with 5 µL Annexin V-FITC and 5 µL propidium iodide following 24 h treatment with DMSO or 10, 50, or 100 nM verticillin A and analyzed via FACS analysis (LSR II, BD Pharmagen, San Diego, CA, USA)."}, "[3]": {"test_system": "LMS1 cells", "experiment": "MTS cell viability analysis, LMS1", "assay_type": "cell-based", "procedure": "(§2) MTS analysis was performed using CellTiter96 Aqueous Non-Radioactive Cell Proliferation Assay kit (Promega, Madison, WI, USA) as specified by the manufacturer. Cells were seeded at a density of 5,000 cells per well, and allowed to adhere overnight. Cellular viability was assessed 24 h after treatment with DMSO (control), or 10, 50, or 100 nM verticillin A, and absorbance was measured at 490 nm wavelength.\n(§3) In vitro analyses were performed in triplicate. Mean ± SEM (standard error mean) calculations and statistical analyses were performed for all cell-based assays, and EC50 values were computed using GraphPad Prism version 6.00 (for Windows, GraphPad Software, La Jolla California USA, www.graphpad.com). All Student t tests performed were unpaired and two-sided. The average tumor volume (mm^3) and weight ([…]) for each study arm was measured and recorded. Mean ± SEM was calculated for each treatment group, and end-point analyses determined using unpaired two-sided t test was utilized to determine variances. *p ≤ 0.05; **p ≤ 0.01; ***p ≤ 0.001."}, "[4]": {"test_system": "MPNST724 xenografts", "experiment": "MPNST724 xenograft model", "assay_type": "in vivo, SCID mice", "procedure": "Six week old female SCID mice (Taconic Biosciences, Hudson, NY, USA; model ^#CB17SC) were injected subcutaneously with 1 × 10^6 MPNST724 cells into the flank. Once tumors reached 0.5 cm, mice were allocated into three arms (10 mice per arm) and treatment via intraperitoneal injections was initiated: Vehicle (5% ethanol/15% cremophor EL/80% PBS), verticillin A (0.25 mg/kg every other day), or verticillin A (0.5 mg/kg every other day). Mice were weighed and tumors were measured twice weekly. Mice were euthanized once tumors in the control group grew to ~1.5 cm. Final tumor volumes and weights were measured, and tumors were processed for IHC analysis.\nKi67 (Vector Laboratories) and cleaved caspase 3 (Cell Signaling) antibodies were used to identify the effect of verticillin A on proliferation and apoptosis, respectively. IHC staining was conducted at Nationwide Children’s Hospital (Columbus, OH) and analysis was performed at the Polaris Innovation Center (The Ohio State University, Columbus, OH, USA). IHC samples and analyses were verified by pathologist, O. Hans Iwenofu, M.D. (The Ohio State University, Department of Pathology, Columbus, OH, USA).\nas §3"}, "[5]": {"test_system": "ST88 cells", "experiment": "MTS cell viability analysis, ST88", "assay_type": "cell-based, human", "conditions": "24 h", "procedure": "as §2, §3"}, "[6]": {"test_system": "HASMC (human aortic smooth muscle cells)", "experiment": "MTS cell viability analysis, HASMC", "assay_type": "cell-based", "procedure": "as §2, §3"}, "[7]": {"test_system": "SKLMS1 cells", "experiment": "MTS cell viability analysis, SKLMS1", "assay_type": "cell-based", "procedure": "as §2, §3"}, "[8]": {"test_system": "HSC (human Schwann cells)", "experiment": "MTS cell viability analysis, HSC", "assay_type": "cell-based", "procedure": "as §2, §3"}, "[9]": {"test_system": "HepG2 liver carcinoma cells", "design": "method as in PMID 21911457", "conditions": "cited from earlier work"}, "[10]": {"test_system": "MPNST724 cells", "experiment": "MTS cell viability analysis, MPNST724", "assay_type": "cell-based, human", "procedure": "as §2, §3"}, "[11]": {"test_system": "MPNST724 cells", "experiment": "Annexin V/PI FACS analysis, MPNST724", "assay_type": "cell-based, human", "conditions": "MPNST724, 24 h treatment, concentration not given", "procedure": "as §1"}, "[12]": {"test_system": "MPNST and LMS cell lines", "experiment": "Cell cycle analysis (PI, FACS)", "assay_type": "cell-based", "conditions": "MPNST and LMS cells, 24 h treatment", "procedure": "Cells were synchronized by 16 h starvation prior to treatment with DMSO, 10, 50, or 100 nM of verticillin A for 24 h. Attached and floating cells were collected following treatment and centrifuged for 5 min at 2500 RPM. Supernatant was removed and cells were washed twice with cold PBS. Cells were centrifuged (2500 RPM/5 min) and resuspended in 70% ethanol and fixed overnight at −20° C. Cells were then centrifuged at (2500 RPM/5 min), and ethanol was removed. Subsequently, cells were resuspended in 400 µL PI stain (0.05 mg/mL/ 1 mg/mL sodium citrate/ 50 µL Triton-X-100/ 50 µL RNase A, brought to 50 mL with PBS) and analyzed via LSR II FACS analysis."}, "[13]": {"test_system": "S462 cells", "experiment": "Annexin V/PI FACS analysis, S462", "assay_type": "cell-based, human", "conditions": "S462, 24 h treatment, concentration not given", "procedure": "as §1"}, "[14]": {"test_system": "S462 cells", "experiment": "MTS cell viability analysis, S462", "assay_type": "cell-based, human", "procedure": "as §2, §3"}, "[15]": {"test_system": "HASMC", "experiment": "Cleaved caspase 3/7 activity, HASMC", "assay_type": "cell-based, human", "conditions": "24 h", "procedure": "as §1"}, "[16]": {"test_system": "MPNST and LMS cell lines", "experiment": "Clonogenic analysis", "assay_type": "cell-based", "conditions": "all doses, 24 h treatment then 10 days recovery", "procedure": "Cells were seeded at 800 cells per well in a 6-well plate (9.5 cm^2) and allowed to attach overnight prior to treatment with DMSO or varying concentrations of verticillin A. Cells were treated for 24 h, then changed to recovery media and allowed to continue to grow for 10 days. Colonies were stained using 0.5% crystal violet solution in methanol for 30 min. Staining solution was removed, wells were washed with deionized H2O, and stained colonies were imaged and counted."}, "[17]": {"test_system": "HSC", "experiment": "Cleaved caspase 3/7 activity, HSC", "assay_type": "cell-based, human", "conditions": "24 h", "procedure": "as §1"}, "[18]": {"test_system": "MPNST and LMS cell lines", "experiment": "Cleaved caspase 3/7 activity, MPNST and LMS cell lines", "assay_type": "cell-based", "conditions": "all MPNST and LMS cell lines", "procedure": "as §1"}, "[19]": {"test_system": "LMS1 cells", "experiment": "Annexin V/PI FACS analysis, LMS1", "assay_type": "cell-based", "conditions": "LMS1, 24 h treatment, concentration not given", "procedure": "as §1"}, "[20]": {"conditions": "0.5 mg/kg intraperitoneal every other day, day 11"}, "[21]": {"conditions": "MPNST724 xenograft tumors, 0.5 mg/kg"}, "[22]": {"conditions": "Homo sapiens, MTS, 24 h treatment"}}, "data": [{"smiles": "CN1C(=O)C23SSC1(C)C(=O)N2C1Nc2ccccc2C1(C12c4ccccc4NC1N1C(=O)C4(C)SSC1(C(=O)N4C)C2O)C3O", "note": "(stereo not shown) [verticillin A]", "values": [{"measurement": "cell cycle effect", "setting": "[1]", "value": "induce G2 cell cycle arrest"}, {"measurement": "apoptosis (Annexin V/PI)", "setting": "[2]", "value": "29.4 ± 2.3", "unit": "%"}, {"measurement": "effect on cell viability", "setting": "[3]; LMS1, 10 nM, 24 h", "value": "marked inhibitory effect"}, {"measurement": "cellular growth reduction", "setting": "[3]; LMS1, 100 nM, 24 h", "value": 96.7, "unit": "%"}, {"measurement": "EC50", "setting": "[3]; LMS1, MTS, 24 h treatment", "value": 0.0107, "unit": "µM"}, {"measurement": "tumor volume", "setting": "[4]; 0.25 mg/kg intraperitoneal every other day, day 11", "value": 355.89, "unit": "mm^3"}, {"measurement": "verticillin A-induced mortality", "setting": "[4]; 0.5 mg/kg arm, 10 mice per arm", "value": 2, "unit": "mice"}, {"measurement": "toxicity signs in mice", "setting": "[4]; 0.5 mg/kg intraperitoneal every other day", "value": "reduced grooming tendencies and mild weight loss"}, {"measurement": "tumor volume", "setting": "[4]; [20]", "value": 160.92, "unit": "mm^3"}, {"measurement": "tumor weight", "setting": "[4]; [20]", "value": 0.2, "unit": "g"}, {"measurement": "decrease in Ki67 proliferation marker expression (IHC)", "setting": "[4]; [21]", "value": "~40", "unit": "%"}, {"measurement": "increase in cleaved caspase 3 expression (IHC)", "setting": "[4]; [21]", "value": 5.5, "unit": "fold"}, {"measurement": "toxicity signs in mice", "setting": "[4]; lower dose (0.25 mg/kg)", "value": "Minor signs of toxicity"}, {"measurement": "effect on cell viability", "setting": "[5]; ST88, 10 nM", "value": "marked inhibitory effect"}, {"measurement": "cellular growth reduction", "setting": "[5]; ST88, 100 nM", "value": 72.7, "unit": "%"}, {"measurement": "effect on cell viability", "setting": "[6]; 100 nM", "value": "no effect"}, {"measurement": "EC50", "setting": "[6]; [22]", "value": 0.251, "unit": "µM"}, {"measurement": "EC50", "setting": "[7]; Homo sapiens, SK-LMS-1, SKLMS1, MTS, 24 h treatment", "value": 0.0746, "unit": "µM"}, {"measurement": "effect on cell viability", "setting": "[7]; SKLMS1, 10 nM, 24 h", "value": "exhibited tolerance"}, {"measurement": "cellular growth reduction", "setting": "[7]; SKLMS1, 100 nM, 24 h", "value": 57, "unit": "%"}, {"measurement": "EC50", "setting": "[8]; [22]", "value": 0.0649, "unit": "µM"}, {"measurement": "toxicity to normal cells", "setting": "[8]; highest treatment dose", "value": "toxicity was seen"}, {"measurement": "cell cycle effect", "setting": "[9]", "value": "no changes in cell cycle progression"}, {"measurement": "EC50", "setting": "[10]; Homo sapiens, MPNST724, MTS, 24 h treatment", "value": 0.125, "unit": "µM"}, {"measurement": "effect on cell viability", "setting": "[10]; MPNST724, 10 nM, 24 h", "value": "exhibited tolerance"}, {"measurement": "cellular growth reduction", "setting": "[10]; MPNST724, 100 nM, 24 h", "value": 39.7, "unit": "%"}, {"measurement": "apoptosis (Annexin V/PI)", "setting": "[11]", "value": "34 ± 4.3", "unit": "%"}, {"measurement": "cell cycle arrest", "setting": "[12]", "value": "No substantial arrest in cell cycle progression"}, {"measurement": "apoptosis (Annexin V/PI)", "setting": "[13]", "value": "25.9 ± 3.75", "unit": "%"}, {"measurement": "EC50", "setting": "[14]; Homo sapiens, S462, MTS, 24 h treatment", "value": 0.026, "unit": "µM"}, {"measurement": "effect on cell viability", "setting": "[14]; S462, 10 nM, 24 h", "value": "marked inhibitory effect"}, {"measurement": "cellular growth reduction", "setting": "[14]; S462, 100 nM, 24 h", "value": 88.7, "unit": "%"}, {"measurement": "cleaved caspase 3/7 activity", "setting": "[15]", "value": 1.2, "unit": "fold change"}, {"measurement": "colony formation capacity", "setting": "[16]", "value": "unable to form colonies"}, {"measurement": "cleaved caspase 3/7 activity", "setting": "[17]", "value": 1.1, "unit": "fold change"}, {"measurement": "increase in cleaved caspase 3/7 activity", "setting": "[18]", "value": "nearly two-fold increase"}, {"measurement": "apoptosis (Annexin V/PI)", "setting": "[19]", "value": "73.4 ± 12.7", "unit": "%"}]}]}
